Article PMC10712727, “Safety, Tolerability, and Pharmacokinetics of Senaparib, a Novel PARP1/2 Inhibitor, in Chinese Patients With Advanced Solid Tumors: A Phase I Trial” (The Oncologist, 2023)

System: patients with advanced solid tumors
Assay: Safety: treatment-emergent and senaparib-related adverse events graded per NCI CTCAE v4.03
Format: in vivo
Description: This phase I, open-label, multicenter, dose-escalation, and dose-expansion study was conducted at three national clinical institutions in China. […] At baseline, all patients enrolled in the dose-escalation phase had to have at least one evaluable lesion, and those in the dose-expansion period had to have at least one measurable lesion, according to Response Evaluation Criteria in Solid Tumors version 1.1 (RECIST v1.1).[16] Entry to the dose-expansion cohort required the presence of a BRCA mutation, with the exception of patients with ovarian carcinoma, fallopian tube carcinoma, and primary peritoneal carcinoma. Full study eligibility criteria are provided in Supplementary Table S1.
Dose escalation was conducted using a modified Fibonacci 3 + 3 method (Supplementary Fig. S1).[17] Patients were administered oral senaparib from a planned starting dose of 2 mg once daily (QD), with preliminary dose escalation to 120 mg via nine dose groups, in order of their entry into the study. At a given dose level, each patient received a single dose of senaparib followed by a 7-day washout period. They then entered a continuous dosing period to confirm the safety and PK profile, in which they received senaparib QD from day 1 to day 21 of each 3-week cycle. Progression to the next higher dose required approval from the Data Safety Monitoring Committee (DSMC) upon review of the safety and PK data of the previous dose. A 50-mg twice-daily (BID) dosing group was added (planned enrollment, n = 6 patients) based on a DSMC review of the safety, PK, and efficacy analysis of the completed QD dose groups in the phase I clinical trial of senaparib dose escalation in Australia (NCT03507543), which commenced prior to the start of this trial.
The dose-expansion period included 3 populations: dose groups in which at least one patient achieved complete response (CR) or partial response (PR) per RECIST v1.1[16] and 1 dose group higher (evaluated for safety), as well as the dose group at the maximum tolerated dose (MTD)/recommended phase II dose (RP2D). Each of these groups included those patients in the respective dose-escalation group plus a planned additional 10 patients (approximately 20 patients in the MTD/RP2D group) with BRCA^mut+ solid tumors (ovarian, breast, or prostate cancer were preferred, and ovarian cancer could be BRCA wild type). Patients received senaparib monotherapy orally QD or BID (50-mg dose only) over each 3-week cycle until disease progression or unacceptable toxicity.
DLTs were predefined toxicities (Supplementary Table S2) recorded over the 7 days following the single-dose administration of senaparib and during the first treatment cycle (day 1-day 21) for each dose group in the dose-escalation period only. The MTD was defined as the maximum dose at which ≤1/6 patients experienced a DLT. Senaparib PK parameters were derived from blood samples collected from patients after the single administration, and at regular intervals during the first cycle of the dose-escalation and dose-expansion periods. Plasma concentrations of senaparib were determined using high-performance liquid chromatography-tandem mass spectrometry. Tumor response was assessed every 6 weeks per RECIST v1.1,[16] recording objective response rate (ORR), disease control rate (DCR), duration of response (DOR), and progression-free survival (PFS) by dose level for all patients and for those harboring BRCA^mut+ tumors.

## O=C(c1cc(Cn2c(=O)[nH]c(=O)c3c(F)cccc32)ccc1F)N1CCN(c2ncccn2)CC1 [Senaparib]
TEAE, 120 mg QD n = 4
  Pain in extremity, Gr≥3: 0 n (%)
  Platelet count decreased, All: 1 (25.0) n (%)
  Platelet count decreased, Gr≥3: 0 n (%)
  Protein in urine, All: 1 (25.0) n (%)
  Protein in urine, Gr≥3: 0 n (%)
  Vomiting, All: 1 (25.0) n (%)
  Vomiting, Gr≥3: 0 n (%)
  WBC decreased, All: 4 (100) n (%)
  WBC decreased, Gr≥3: 0 n (%)
TEAE, Total N = 57
  ALT increased, All: 10 (17.5) n (%)
  ALT increased, Gr≥3: 1 (1.8) n (%)
  AST increased, All: 10 (17.5) n (%)
  AST increased, Gr≥3: 1 (1.8) n (%)
  Abdominal distension, All: 7 (12.3) n (%)
  Abdominal distension, Gr≥3: 0 n (%)
  Anemia (incl. hemoglobin decreased), Gr≥3: 12 (21.1) n (%)
  Appetite decreased, All: 14 (24.6) n (%)
  Appetite decreased, Gr≥3: 0 n (%)
  Asthenia, All: 16 (28.1) n (%)
  Asthenia, Gr≥3: 0 n (%)
  Blood bilirubin increased, All: 8 (14.0) n (%)
  Blood bilirubin increased, Gr≥3: 1 (1.8) n (%)
  Blood creatinine increased, All: 8 (14.0) n (%)
  Blood creatinine increased, Gr≥3: 0 n (%)
  Hypokalemia, All: 6 (10.5) n (%)
  Hypokalemia, Gr≥3: 0 n (%)
  Hyponatremia, All: 7 (12.3) n (%)
  Hyponatremia, Gr≥3: 1 (1.8) n (%)
  Nausea, All: 14 (24.6) n (%)
  Nausea, Gr≥3: 0 n (%)
  Neutrophil count decreased, All: 12 (21.1) n (%)
  Neutrophil count decreased, Gr≥3: 3 (5.3) n (%)
  Pain in extremity, All: 7 (12.3) n (%)
  Pain in extremity, Gr≥3: 2 (3.5) n (%)
  Platelet count decreased, All: 17 (29.8) n (%)
  Platelet count decreased, Gr≥3: 3 (5.3) n (%)
  Protein in urine, All: 6 (10.5) n (%)
  Protein in urine, Gr≥3: 0 n (%)
  Vomiting, All: 12 (21.1) n (%)
  Vomiting, Gr≥3: 2 (3.5) n (%)
  WBC decreased, All: 25 (43.9) n (%)
  WBC decreased, Gr≥3: 2 (3.5) n (%)
Total N = 57
  ALT increased TRAE, All: 10 (17.5) n (%)
  ALT increased TRAE, Gr≥3: 1 (1.8) n (%)
  AST increased TRAE, All: 10 (17.5) n (%)
  AST increased TRAE, Gr≥3: 1 (1.8) n (%)
  Anemia TRAE, Gr≥3: 12 (21.1) n (%)
  Any TEAE, All: 57 (100) n (%)
  Any TEAE, Gr≥3: 27 (47.4) n (%)
  Any TEAE, events: 491 n ev
  Any TEAE, patients: 57 (100) n (%)
  Any TRAE, All: 55 (96.5) n (%)
  Any TRAE, Gr≥3: 19 (33.3) n (%)
  Appetite decreased TRAE, All: 13 (22.8) n (%)
  Appetite decreased TRAE, Gr≥3: 0 n (%)
  Asthenia TRAE, All: 15 (26.3) n (%)
  Asthenia TRAE, Gr≥3: 0 n (%)
  Blood bilirubin increased TRAE, All: 8 (14.0) n (%)
  Blood bilirubin increased TRAE, Gr≥3: 1 (1.8) n (%)
  Blood creatinine increased TRAE, All: 8 (14.0) n (%)
  Blood creatinine increased TRAE, Gr≥3: 0 n (%)
  Hypokalemia TRAE, All: 6 (10.5) n (%)
  Hypokalemia TRAE, Gr≥3: 0 n (%)
  Nausea TRAE, All: 14 (24.6) n (%)
  Nausea TRAE, Gr≥3: 0 n (%)
  Neutrophil count decreased TRAE, All: 12 (21.1) n (%)
  Neutrophil count decreased TRAE, Gr≥3: 3 (5.3) n (%)
  Platelet count decreased TRAE, All: 16 (28.1) n (%)
  Platelet count decreased TRAE, Gr≥3: 3 (5.3) n (%)
  SAEs, events: 12 n ev
  SAEs, patients: 12 (21.1) n (%)
  TEAE Grade ≥3, events: 41 n ev
  TEAE Grade ≥3, patients: 27 (47.4) n (%)
  TEAEs leading to death, events: 2 n ev
  TEAEs leading to death, patients: 2 (3.5) n (%)
  TEAEs leading to dose discontinuation, events: 10 n ev
  TEAEs leading to dose discontinuation, patients: 6 (10.5) n (%)
  TEAEs leading to dose interruption, events: 23 n ev
  TEAEs leading to dose interruption, patients: 15 (26.3) n (%)
  TEAEs leading to dose reduction, events: 10 n ev
  TEAEs leading to dose reduction, patients: 8 (14.0) n (%)
  TRAEs Grade ≥3, events: 29 n ev
  TRAEs Grade ≥3, patients: 19 (33.3) n (%)
  TRAEs, events: 403 n ev
  TRAEs, patients: 55 (96.5) n (%)
  Vomiting TRAE, All: 10 (17.5) n (%)
  Vomiting TRAE, Gr≥3: 1 (1.8) n (%)
  WBC decreased TRAE, All: 25 (43.9) n (%)
  WBC decreased TRAE, Gr≥3: 2 (3.5) n (%)
All patients N = 57
  All other grade ≥3 TEAEs, incidence of each: ≤ 3.5%
  Anemia causing study drug discontinuation, patients: 5.3%
  Grade ≥3 TEAE: anemia, incidence: 21.1%
  Grade ≥3 TEAE: neutrophil count decreased, incidence: 5.3%
  Grade ≥3 TEAE: platelet count decreased, incidence: 5.3%
  Grade ≥3 TEAEs, incidence: 47.4%
  Grade ≥3 TRAE: anemia, incidence: 21.1%
  Overall incidence of grade ≥3 TRAEs: 33.3%
  Patients with senaparib-related adverse events (TRAEs): 96.5%
  Serious adverse events considered related to senaparib, patients: 12.3%
  Serious adverse events, patients: 21.1%
  TEAEs causing dose interruption, patients: 26.3%
  TEAEs causing dose reduction, patients: 14.0%
  TEAEs causing study drug discontinuation, patients: 10.5%
  TEAEs, number of events: 491 events
All patients N = 57, any grade
  Senaparib-related adverse event (TRAE): anemia, incidence: 80.9%
  TEAE: anemia, incidence: 80.9%
  TEAE: asthenia, incidence: 28.1%
  TEAE: platelet count decreased, incidence: 29.8%
  TEAE: white blood cell count (WBC) decreased, incidence: 43.9%
  TRAE: asthenia, incidence: 26.3%
  TRAE: platelet count decreased, incidence: 28.1%
  TRAE: white blood cell count decreased, incidence: 43.9%
All patients N = 57, neither related to senaparib
  TEAEs resulting in death, patients: 3.5%
In vivo
  Patients with most frequent (hematologic) TRAEs of grade ≤3: > 90%
Present study
  Pneumonitis and venous thromboembolic events: neither of which were observed
Present study population
  Secondary hematologic tumors (AML/MDS): no cases
